Test results as given in patent US10076519B2 (CYTOKINETICS, INC., priority 2010, dated 2018).

These molecules were tested on rabbit skeletal myofibrils (fast skeletal myofibrils) (assay: Activation of fast skeletal myofibrils (PUMA assay, PK/LDH-coupled ATPase at pCa25)). Details: AC1.4 determined according to the procedure of Example 39; reported as class symbols.
Assay type: biochemical
Protocol: Preparation of Fast Skeletal Myofibrils.
Rabbit skeletal myofibrils were prepared based upon the method of Herrmann et al. (Biochem. 32(28):7255-7263(1993). Myofibrils were prepared from rabbit psoas muscle purchased from Pel-Freez Biologicals (Arkansas) within 2 days of ordering, stored on ice. Minced muscle was homogenized in 10 volumes of ice-cold “standard” buffer (50 mM Tris, pH 7.4, 0.1M potassium acetate, 5 mM KCl, 2 mM DTT, 0.2 mM PMSF, 10 μM leupeptin, 5 μM pepstatin, and 0.5 mM sodium azide) containing 5 mM EDTA and 0.5% Triton X-100 using an Omni-Macro homogenizer. Myofibrils were recovered by low speed centrifugation (3000 rpm for 10 minutes) and washed 2 times in the Triton X-100 containing buffer to ensure removal of cellular membrane. Following the Triton washes, myofibrils were washed 3 times in “standard” buffer containing 2 mM magnesium acetate. A final wash in assay buffer (12 mM PIPES, pH 6.8, 60 mM KCl, 1 mM DTT) was performed and brought to 10% sucrose for flash freezing in liquid nitrogen and storage at −80° C.
Activation of Fast Skeletal Myofibrils.
Fast fiber activators were identified by measuring the enzymatic activity of muscle myofibril preparations using the proprietary PUMA™ (see, e.g., U.S. Pat. Nos. 6,410,254, 6,743,599, 7,202,051, and 7,378,254) assay system. Myofibril preparations consisted of rabbit skeletal muscle (approximately 90% fast fibers) that had been mechanically homogenized and washed with a detergent (triton X-100) to remove cellular membranes. This preparation retained all of the sarcomeric components in a native conformation and the enzymatic activity was still regulated by calcium. Compounds were tested using a myofibril suspension and a level of calcium sufficient to increase enzymatic activity of the myofibrils to 25% of their maximal rate (termed pCa25). Enzymatic activity was tracked via a pyruvate kinase and lactate dehydrogenase-coupled enzyme system. This assay regenerates myosin-produced ADP into ATP by oxidizing NADH, producing an absorbance change at 340 nm. The buffering system was 12 mM Pipes, 2 mM MgCl2, 1 mM DTT at pH 6.8 (PM12 buffer).
Using procedures similar to those described herein, utilizing reagents and intermediates commercially available (e.g., Sigma-Aldrich, St. Louis, Mo.) or readily synthesized by one of skill in the art, the compounds in Table 2 were synthesized, characterized and tested. AC1.4 values were determined according to the procedure described in Example 39, and the reported median AC1.4 values are as follows: A=<1 uM; B=1-10 uM; C=10-20 uM; D=>20 uM.
For `c1ccc(C2(CNc3ccc(-c4ccc5cn[nH]c5c4)nn3)CCC2)nc1` [(6-(1H-indazol-6-yl)pyridazin-3-yl)[(2-pyridylcyclobutyl)methyl]amine], the “Mean AC1.4” value was “A (A=<1 uM)”. For `Fc1cccnc1C1(CNc2ccc(-c3cn[nH]c3)nn2)CCC1` [{[(3-fluoro(2-pyridyl))cyclobutyl]methyl}(6-pyrazol-4-ylpyridazin-3-yl)amine], the “Mean AC1.4” value was “C (C=10-20 uM)”. `CC(C)(CNc1ccc(-c2ccc3[nH]nc(N)c3c2)nn1)c1ccc(CO)cc1` was tested, and the “Mean AC1.4” value was “D (D=>20 uM)”. In the case of `Nc1n[nH]c2ccc(-c3ccc(NCC4(c5ccc(F)cc5)CCCCC4)nn3)cc12` [[6-(3-amino(1H-indazol-5-yl))pyridazin-3-yl]{[(4-fluorophenyl)cyclohexyl]meth-yl}amine], the “Mean AC1.4” value was “A (A=<1 uM)”. `CC(C)(CNc1ccc(-c2cccc(N)n2)nn1)c1ccc(F)cc1` [[6-(6-amino(2-pyridyl))pyridazin-3-yl][2-(4-fluorophenyl)-2-methylpropyl]amine] was tested, and the “Mean AC1.4” value was “B (B=1-10 uM)”. In the case of `CC(CNc1ccc(-c2cccc(C(N)=O)c2)nn1)N1CCCCC1` (stereo not drawn) [3-{6-[(2-piperidylpropyl)amino]pyridazin-3-yl}benzamide], the “Mean AC1.4” value was “D (D=>20 uM)”. With `NS(=O)(=O)c1cccc(-c2ccc(NCC3(c4ncccc4F)CCC3)nn2)c1` the “Mean AC1.4” value was “A (A=<1 uM)”. In the case of `NC(=O)c1ccc(-c2ccc(NCC3(c4ncccc4F)CCC3)nn2)c(F)c1`, the “Mean AC1.4” value was “B (B=1-10 uM)”. In the case of `CC(C)(CNc1ccc(-c2ccc3[nH]nc(N)c3c2)nn1)c1ccc(F)cn1` [[6-(3-amino(1H-indazol-5-yl))pyridazin-3-yl][2-(5-fluoro(2-pyridyl))-2-methylpropyl]amine], the “Mean AC1.4” value was “B (B=1-10 uM)”. With `CC(C)(CNc1ccc(-c2ccc3c(N)n[nH]c3c2)nn1)c1ncccc1F` [[6-(3-amino(1H-indazol-6-yl))pyridazin-3-yl][2-(3-fluoro(2-pyridyl))-2-methylpropyl]amine] the “Mean AC1.4” value was “B (B=1-10 uM)”. In the case of `CC(C)(CNc1ccc(-c2cccc(C(N)=O)c2)nn1)c1ncccn1` [3-{6-[(2-methyl-2-pyrimidin-2-ylpropyl)amino]pyridazin-3-yl}benzamide], the “Mean AC1.4” value was “D (D=>20 uM)”. With `COc1ccnc(C2(CNc3ccc(-c4cc(C(N)=O)ccc4F)nn3)CCC2)c1` the “Mean AC1.4” value was “B (B=1-10 uM)”. In the case of `N#Cc1ccnc(C2(CNc3ccc(-c4cccc(C(N)=O)c4)nn3)CCC2)c1`, the “Mean AC1.4” value was “B (B=1-10 uM)”. In the case of `CC(Nc1ccc(-c2cccc(C(N)=O)c2)nn1)c1ccc(F)cc1` (stereo not drawn), the “Mean AC1.4” value was “C (C=10-20 uM)”. With `N#Cc1cccc(-c2ccc(NCCc3ccc(Cl)cc3Cl)nn2)c1` the “Mean AC1.4” value was “D (D=>20 uM)”. With `COC(=O)NCc1ccc(NCC(C)(C)c2ccc(F)cc2)nn1` [N-[(6-{[2-(4-fluorophenyl)-2-methylpropyl]amino}pyridazin-3-yl)methyl]methoxycarboxamide] the “Mean AC1.4” value was “D (D=>20 uM)”.

Same assay, conditions: median AC1.4 class, procedure of Example 39
For `Fc1cccnc1C1(CNc2ccc(-c3cccc(F)c3F)nn2)CCC1` [[6-(2,3-difluorophenyl)pyridazin-3-yl]{[(3-fluoro(2-pyridyl))cyclobutyl]methyl}amine], the “Mean AC1.4” value was “A (A=<1 uM)”. In the case of `Fc1cccnc1C1(CNc2ccc(-c3ncccc3Cl)nn2)CCC1` [[6-(3-chloro(2-pyridyl))pyridazin-3-yl]{[(3-fluoro(2-pyridyl))cyclobutyl]methyl}amine], the “Mean AC1.4” value was “C (C=10-20 uM)”. With `COc1nc(-c2ccc(NCC3(c4ncccc4F)CCC3)nn2)sc1C(N)=O` [2-[6-({[(3-fluoro(2-pyridyl))cyclobutyl]methyl}ami-no)pyridazin-3-yl]-4-methoxy-1,3-thiazole-5-carboxamide] the “Mean AC1.4” value was “A (A=<1 uM)”. With `CC(C)(O)C(=O)NCc1cnc(-c2ccc(NCC3(c4ncccc4F)CCC3)nn2)s1` [N-({2-[6-({[(3-fluoro(2-pyridyl))cyclobutyl]methyl}ami-no)pyridazin-3-yl](1,3-thiazol-5-yl)}methyl)-2-hydroxy-2-methylpropanamide] the “Mean AC1.4” value was “A (A=<1 uM)”. With `OCc1cnc(-c2ccc(NCC3(c4ncccc4F)CCC3)nn2)s1` [{2-[6-({[(3-fluoro-2-pyridyl)cyclobutyl]methyl}ami-no)pyridazin-3-yl]-1,3-thiazol-5-yl}methan-1-ol] the “Mean AC1.4” value was “B (B=1-10 uM)”. In the case of `Nc1ncc(-c2ccc(NC3(c4ccc(F)cc4)CCC3)nn2)cn1` [[6-(2-aminopyrimidin-5-yl)pyridazin-3-yl][(4-fluorophenyl)cyclobutyl]amine], the “Mean AC1.4” value was “B (B=1-10 uM)”. `NC(=O)c1cc(-c2ccc(NCC3(c4ncccc4F)CCC3)nn2)ccc1O` was tested, and the “Mean AC1.4” value was “A (A=<1 uM)”. For `C[C@H](N)C(=O)NCc1cnc(-c2ccc(NCC3(c4ncccc4F)CCC3)nn2)s1` [(2S)-2-amino-N-({2-[6-({[(3-fluoro(2-pyridyl))cyclobutyl]methyl}ami-no)pyridazin-3-yl](1,3-thiazol-5-yl)}methyl)propanamide], the “Mean AC1.4” value was “A (A=<1 uM)”. `Fc1cccnc1C1(CNc2ccc(-c3cnccn3)nn2)CCC1` [{[(3-fluoro(2-pyridyl))cyclobutyl]methyl}(6-pyrazin-2-ylpyridazin-3-yl)amine] was tested, and the “Mean AC1.4” value was “B (B=1-10 uM)”. With `NC(=O)c1nnc(-c2ccc(NCC3(c4ncccc4F)CCC3)nn2)[nH]1` [5-[6-({[(3-fluoro-2-pyridyl)cyclobutyl]methyl}ami-no)pyridazin-3-yl]-4H-1,2,4-triazole-3-carboxamide] the “Mean AC1.4” value was “C (C=10-20 uM)”. `CC(C)(Nc1ccc(-c2cccc(C(N)=O)c2)nn1)c1ccccc1` [3-{6-[(1-methyl-1-phenylethyl)amino]pyridazin-3-yl}benzamide] was tested, and the “Mean AC1.4” value was “B (B=1-10 uM)”. With `CC(O)c1cnc(-c2ccc(NCC3(c4ncccc4F)CCC3)nn2)s1` (stereo not drawn) [1-{2-[6-({[(3-fluoro-2-pyridyl)cyclobutyl]methyl}ami-no)pyridazin-3-yl]-1,3-thiazol-5-yl}ethan-1-ol] the “Mean AC1.4” value was “B (B=1-10 uM)”. With `O=C(O)c1ccc(F)c(-c2ccc(NC3(c4ccc(F)cc4)CCC3)nn2)c1` the “Mean AC1.4” value was “B (B=1-10 uM)”. `Fc1cccnc1C1(CNc2ccc(-c3ccc(NCC4(c5ncccc5F)CCC4)nn3)nn2)CCC1` was tested, and the “Mean AC1.4” value was “D (D=>20 uM)”. `NC(=O)c1cc(-c2ccc(NCC3(c4ncccc4F)CCC3)nn2)n[nH]1` was tested, and the “Mean AC1.4” value was “B (B=1-10 uM)”. `NC(=O)c1nc(-c2ccc(NCC3(c4ncccc4F)CCC3)nn2)c[nH]1` was tested, and the “Mean AC1.4” value was “C (C=10-20 uM)”. With `NC(=O)c1noc(-c2ccc(NCC3(c4ncccc4F)CCC3)nn2)n1` the “Mean AC1.4” value was “B (B=1-10 uM)”. `CC(C)(Nc1ccc(-c2cc(C(N)=O)ccc2F)nn1)c1cccc(OC(F)F)n1` [3-[6-({1-[6-(difluoromethoxy)(2-pyridyl)]-isopropyl}amino)pyridazin-3-yl]-4-fluorobenzamide] was tested, and the “Mean AC1.4” value was “A (A=<1 uM)”.

Same assay, conditions: median AC1.4 reported as class; procedure of Example 39
With `CNC(=O)Cc1cnc(-c2nnc(NCC3(c4ncccc4F)CCC3)cc2C)s1` [2-{2-[6-({[(3-fluoro(2-pyridyl))cyclobutyl]methyl}amino)-4-methylpyridazin-3-yl](1,3-thiazol-5-yl)}-N-methylacetamide] the “Mean AC1.4” value was “B (B=1-10 uM)”. With `CC(C)(Nc1ccc(-c2cn3c(C(N)=O)csc3n2)nn1)c1ncccc1Cl` [6-(6-{[1-(3-chloro(2-pyridyl))-isopropyl]amino}pyridazin-3-yl)imidazo[2,1-b]1,3-thiazoline-3-carboxamide] the “Mean AC1.4” value was “B (B=1-10 uM)”. With `NC(=O)c1cn[nH]c1NC(=O)c1ccc(NCC2(c3ncccc3F)CCC2)nn1` [5-{[6-({[(3-fluoro-2-pyridyl)cyclobutyl]methyl}ami-no)pyridazin-3-yl]carbonylamino}pyrazole-4-carboxamide] the “Mean AC1.4” value was “C (C=10-20 uM)”. `CNC(=O)Nc1ccc(-c2ccc(NC[C@]3(c4ncccc4F)C[C@H](F)C3)nn2)c(F)c1` [N-{3-fluoro-4-[6-({[3-fluoro-1-(3-fluoro(2-pyridyl))cyclobutyl]methyl}ami-no)pyridazin-3-yl]phenyl}(methylamino)carbox-amide] was tested, and the “Mean AC1.4” value was “A (A=<1 uM)”. `CC(C)(CNc1ccc(-c2cn3c(C(N)=O)csc3n2)nn1)c1ncccc1Cl` was tested, and the “Mean AC1.4” value was “A (A=<1 uM)”.
